From publication PMC2934701 (The Journal of Biological Chemistry, 2010)
Positions count from the first letter of the chain named. pEC50: −log10 of the molar value.

How the values were obtained:
hTAS2R16 (ssr3-hTAS2R16) [1] = target: T1, hTAS2R16 (ssr3-hTAS2R16) (Homo sapiens, UniProt Q9NYV7, E86D); assay: Fluo-4 calcium assay, HEK293T + Galpha16gust44; format: cell-based
T1 sequence (Q9NYV7 1-291 E86D): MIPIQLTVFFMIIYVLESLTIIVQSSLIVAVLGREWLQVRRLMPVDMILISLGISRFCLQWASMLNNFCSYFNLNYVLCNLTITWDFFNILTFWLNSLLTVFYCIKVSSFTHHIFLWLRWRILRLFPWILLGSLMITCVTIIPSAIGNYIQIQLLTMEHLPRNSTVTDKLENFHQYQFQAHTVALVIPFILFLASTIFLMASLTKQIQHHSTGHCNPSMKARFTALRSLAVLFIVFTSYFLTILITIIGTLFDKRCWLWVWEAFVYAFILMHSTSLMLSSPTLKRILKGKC

hTAS2R16 (ssr3-hTAS2R16) [2] = target: T2, hTAS2R16 (ssr3-hTAS2R16) (Homo sapiens, UniProt Q9NYV7); assay: Fluo-4 calcium assay, HEK293T + Galpha16gust44; format: cell-based
T2 sequence (Q9NYV7 1-291): T1 sequence (Q9NYV7 1-291 E86D) with D86E

SMILES: OC[C@H]1O[C@@H](Oc2ccc(O)cc2)[C@H](O)[C@@H](O)[C@@H]1O [arbutin]
- pEC50 (hTAS2R16 (ssr3-hTAS2R16) [1]): 1.97
- pEC50 (hTAS2R16 (ssr3-hTAS2R16) [2]): 2.87
